Laboratory results: patent US7317018B2, “Anti-inflammatory medicament” (Medestea Internazionale S.p.A., priority 2000, dated 2008)

Legend:
Assay type in all cases: in vivo
[1] = tested on: rat hind paw inflamed by Freund's complete adjuvant (FCA); assay: Paw pressure test (nociceptive threshold) and inflammatory signs in rat hind paw inflamed by intraplantar Freund's complete adjuvant (FCA)
Method: As experimental model, a unilateral inflammation in rat hind paw, after intraplantar injection of Freund's complete adjuvant (FCA), has been used. The controlateral paw of treated animals, as well as that of untreated animals, were used as controls. Inflammation induced by FCA was evidenced, from 3 h until 24-48 h following injection, by increase in paw volume, hyperthermia and hyperalgesia. The latter was evaluated by an algesyometric test (paw pressure test) capable of evaluating the nociceptive threshold. […] Different doses of oATP always induced a significant, dose-dependent analgesic effect, lasting approximately 12-24 hours, with an effect peak already one hour after the administration.
(§1) Male Fischer inbred rats (Charles River Italy, Calco, Lecco, Italy) weighing about 250 g were used. Rats, under brief isoflurane anaesthesia received an intraplantar injection of Freund's complete adjuvant (FCA) (0.15 ml) into the right hind paw. This injection induced a unilateral inflammation (from 3 h until 24-48 h following injection) evidenced by increase in paw volume, hyperthermia and hyperalgesia. Hyperalgesia was assessed by an algesyometric test, using an analgesyometer (Ugo Basile, Comerio, Italy) to determine the paw pressure threshold, expressed in grams, namely the pressure required to elicit paw withdrawal, which indicates the nociceptive threshold value. 6 to 8 rats were used for each test. During these trials, animals were treated according to the “standard ethical guidelines” (NIH, 1985).
Rat inflamed paw received, 24 hrs after FCA injection, intraplantar injection of different doses of oATP (56 to 336 μM), considering time 0 the moment of oATP injection.
The effect of the maximal oATP dose used was tested in a further set of experiments, for more prolonged times, on rat paws in which the inflammatory process had been induced 48 hrs before (table 2). […]

noninflamed rat paws = assay: Paw pressure test (nociceptive threshold) in noninflamed rat paws
Method: as §1
Dose/effect curves in noninflamed paws were in fact superimposable (until 120′ after oATP administration) using different concentrations of the molecule. In order to ascertain whether oATP analgesic effect was somewhat related to the activation of inflammatory cells able to produce endogenous β-endorphins, some rats were intravenously injected with fucoidin (10 mg/kg). Fucoidin in fact inhibits leukocyte diapedesis and their accumulation at the inflammation site. Pre-treatment with fucoidin was carried out in both paws, 30′ before FCA injection in one of the rat paws. Pain pressure threshold (PPT) was measured in both noninflamed and inflamed paws, before and after oATP injection (224 μm).

[2] = tested on: ATP content in paw subcutaneous tissue; assay: ATP content of rat paw subcutaneous tissue, luminescence method; conditions: for ATP levels: 6 and 12 h following intraplantar oATP (35 μM), FIG. 3
Method: ATP content was assessed in oATP treated rat paws and controlateral untreated ones. Paw subcutaneous tissues were removed from both inflamed and noninflamed paws and rapidly frozen in liquid nitrogen. The frozen tissue samples were weighed, homogenised in phosphate buffer, then treated with K2CO3 and neutralised, finally centrifuged. The supernatant was used for ATP assay, following the luminescence method. We determined in a separate group of rats the modifications in ATP content induced in the plantar tissue by the inflammatory process and/or by oATP treatment. At established times, paw subcutaneous tissues were removed and rapidly frozen in liquid nitrogen, with the aim of blocking any metabolic activity. The frozen tissue was homogenized with a polytron (Kinematica GmbH, Luzern, Switzerland) in ice-cold 6% (w/v) HClO4 to extract nucleotides. The homogenate was centrifuged and the supernatant was used for ATP determination, following the procedure previously described (Marni et al., Transplantation (1988), 46: 830-835). ATP assay was performed by luminescence method (Ferrero et al., Res Commun Chem Path Pharmac 1984; 45: 55-67). We measured ATP levels, in inflamed (by 24 h FCA treatment) and noninflamed paws treated with oATP, at 6 and 12 h following oATP administration, and in controlateral untreated paws. […] ATP content, at 6 and 12 h following intraplantar oATP (35 μM) injection in rat paws: inflamed (by 24 FCA administration) (filled bars), inflamed-oATP treated (hatched bars), noninflamed (open bars), noninflamed-oATP-treated (horizontal line bars). *p<0.005 compared with inflamed untreated paws, Wilcoxon test. Data are expressed as means±S.E.M. of 7 experiments.

Structure (SMILES): Nc1ncnc2c1ncn2[C@@H]1O[C@H](COP(=O)(O)OP(=O)(O)OP(=O)(O)O)[C@@H](O)[C@H]1O [ATP, reference compound]
- nociceptive threshold ([1]; inflamed paws, after intraplantar injection of ATP (0.9 mmoles)): 50±4.1
- nociceptive threshold ([1]; inflamed paws, before intraplantar injection of ATP (0.9 mmoles)): 65±4.2
- nociceptive threshold (noninflamed rat paws; 240′ after intraplantar injection of ATP (0.9 mmoles)): 25±3.0
- nociceptive threshold (noninflamed rat paws; before intraplantar injection of ATP (0.9 mmoles)): 120±3.2

Structure (SMILES): Nc1ncnc2c1ncn2[C@@H](C=O)O[C@@H](C=O)COP(=O)(O)OP(=O)(O)OP(=O)(O)O [oATP, adenosine-5′-triphosphate-2′,3′-dialdehyde]
- pain pressure threshold (PPT) ([1]; inflamed paws, fucoidin 10 mg/kg i.v. pre-treatment 30′ before FCA, oATP injection 224 μm, FIG. 1): restored PPT levels
- duration of analgesic effect ([1]; intraplantar injection, different doses of oATP): 12 to 24 h
- dose dependence of analgesic effect ([1]; intraplantar oATP 56 to 336 μM): dose-dependent effect
- analgesic efficacy compared with diclofenac ([1]; local treatment 3 hours after FCA, oATP 336 μM vs diclofenac 15 mg, FIG. 2): significantly higher than that of diclofenac
- nociceptive threshold or paw pressure threshold ([1]; oATP 56 μM intraplantar, 24 hrs after FCA, inflamed paw, 30′): 120 ± 2.1 g
- nociceptive threshold or paw pressure threshold ([1]; oATP 56 μM intraplantar, 24 hrs after FCA, inflamed paw, 60′): 190 ± 2.3 g
- nociceptive threshold or paw pressure threshold ([1]; oATP 56 μM intraplantar, 24 hrs after FCA, inflamed paw, 90′): 85 ± 2.5 g
- nociceptive threshold or paw pressure threshold ([1]; oATP 56 μM intraplantar, 24 hrs after FCA, inflamed paw, 120′): 75 ± 1.8 g
- nociceptive threshold or paw pressure threshold ([1]; oATP 56 μM intraplantar, 24 hrs after FCA, inflamed paw, 240′): 75 ± 2.6 g
- nociceptive threshold or paw pressure threshold ([1]; oATP 56 μM intraplantar, 24 hrs after FCA, inflamed paw, time 0′ (untreated inflamed paw, baseline)): 60 ± 1.6 g
- nociceptive threshold or paw pressure threshold ([1]; oATP 112 μM intraplantar, 24 hrs after FCA, inflamed paw, 30′): 140 ± 3.5 g
- nociceptive threshold or paw pressure threshold ([1]; oATP 112 μM intraplantar, 24 hrs after FCA, inflamed paw, 60′): 180 ± 4.2 g
- nociceptive threshold or paw pressure threshold ([1]; oATP 112 μM intraplantar, 24 hrs after FCA, inflamed paw, 90′): 150 ± 3.8 g
- nociceptive threshold or paw pressure threshold ([1]; oATP 112 μM intraplantar, 24 hrs after FCA, inflamed paw, 120′): 100 ± 3.0 g
- nociceptive threshold or paw pressure threshold ([1]; oATP 112 μM intraplantar, 24 hrs after FCA, inflamed paw, 240′): 105 ± 4.3 g
- nociceptive threshold or paw pressure threshold ([1]; oATP 112 μM intraplantar, 24 hrs after FCA, inflamed paw, time 0′ (untreated inflamed paw, baseline)): 65 ± 2.0 g
- nociceptive threshold or paw pressure threshold ([1]; oATP 224 μM intraplantar, 24 hrs after FCA, inflamed paw, 30′): 350 ± 54 g
- nociceptive threshold or paw pressure threshold ([1]; oATP 224 μM intraplantar, 24 hrs after FCA, inflamed paw, 60′): 400 ± 10.3 g
- nociceptive threshold or paw pressure threshold ([1]; oATP 224 μM intraplantar, 24 hrs after FCA, inflamed paw, 90′): 300 ± 11.2 g
- nociceptive threshold or paw pressure threshold ([1]; oATP 224 μM intraplantar, 24 hrs after FCA, inflamed paw, 120′): 185 ± 7.1 g
- nociceptive threshold or paw pressure threshold ([1]; oATP 224 μM intraplantar, 24 hrs after FCA, inflamed paw, 240′): 180 ± 8.9 g
- nociceptive threshold or paw pressure threshold ([1]; oATP 224 μM intraplantar, 24 hrs after FCA, inflamed paw, time 0′ (untreated inflamed paw, baseline)): 50 ± 1.5 g
- nociceptive threshold or paw pressure threshold ([1]; oATP 336 μM intraplantar, 24 hrs after FCA, inflamed paw, 30′): 300 ± 3.4 g
- nociceptive threshold or paw pressure threshold ([1]; oATP 336 μM intraplantar, 24 hrs after FCA, inflamed paw, 60′, 750 = cut off): => 750 *1 g
- nociceptive threshold or paw pressure threshold ([1]; oATP 336 μM intraplantar, 24 hrs after FCA, inflamed paw, 90′, 750 = cut off): => 750 *2 g
- nociceptive threshold or paw pressure threshold ([1]; oATP 336 μM intraplantar, 24 hrs after FCA, inflamed paw, 120′): 600 ± 20.8 g
- nociceptive threshold or paw pressure threshold ([1]; oATP 336 μM intraplantar, 24 hrs after FCA, inflamed paw, 240′): 550 ± 18.4 g
- nociceptive threshold or paw pressure threshold ([1]; oATP 336 μM intraplantar, 24 hrs after FCA, inflamed paw, time 0′ (untreated inflamed paw, baseline)): 60 ± 1.9 g
- nociceptive threshold or paw pressure threshold ([1]; oATP 336 μM, inflammatory process induced 48 hrs before, 30′): 210 ± 10.7 g
- nociceptive threshold or paw pressure threshold ([1]; oATP 336 μM, inflammatory process induced 48 hrs before, 60′): 360 ± 25.8 g
- nociceptive threshold or paw pressure threshold ([1]; oATP 336 μM, inflammatory process induced 48 hrs before, 90′): 395 ± 30.2 g
- nociceptive threshold or paw pressure threshold ([1]; oATP 336 μM, inflammatory process induced 48 hrs before, 120′): 450 ± 38.1 g
- nociceptive threshold or paw pressure threshold ([1]; oATP 336 μM, inflammatory process induced 48 hrs before, 180′): 550 ± 45.9 g
- nociceptive threshold or paw pressure threshold ([1]; oATP 336 μM, inflammatory process induced 48 hrs before, 240′): 690 ± 56.6 g
- nociceptive threshold or paw pressure threshold ([1]; oATP 336 μM, inflammatory process induced 48 hrs before, 12 hours): 400 ± 29.7 g
- nociceptive threshold or paw pressure threshold ([1]; oATP 336 μM, inflammatory process induced 48 hrs before, 24 hours): 210 ± 7.2 g
- nociceptive threshold or paw pressure threshold ([1]; oATP 336 μM, inflammatory process induced 48 hrs before, 26 hours): 190 ± 3.3 g
- nociceptive threshold or paw pressure threshold ([1]; oATP 336 μM, inflammatory process induced 48 hrs before, time 0′ (baseline)): 55 ± 2.0 g
- inflammatory signs (swelling, hyperthermia) ([1]; oATP treated paws compared with untreated paws): reduction of inflammatory signs
- effect on nociceptive threshold (noninflamed rat paws; already at the lowest oATP concentration (56 μM), dose/effect curves superimposable until 120′): effective in increasing nociceptive threshold, for a short time
- pain pressure threshold (PPT) (noninflamed rat paws; fucoidin 10 mg/kg i.v. pre-treatment, oATP injection 224 μm, FIG. 1): did not significantly change PPT values
- ATP levels ([2]; inflamed tissues (24 h FCA), p<0.005 vs inflamed untreated paws): significantly reduced
- ATP levels ([2]; noninflamed tissues): did not significantly change ATP levels
- ATP content of paw homogenate ([2]; oATP treated paws, untreated 1050±90, mean±S.E.M. of 7 experiments): 320±22 nmoles/g fresh tissue
